# In patent publication US20260001914A1, “MACROCYCLIC PEPTIDES TARGETING KRAS” (Merck Sharp & Dohme LLC, priority 2022, published 2026):
# *1 amine or outer side, *2 acyl side, *3 side chain or, on linkers, in order; H or OH if unused. Where a SMILES comes first, the peptide text is derived from it. Bridges are numbered along the chain shown (N, C = ends). [ ]: non-standard residue; d: D form. cBu(1-CO,cis-3-CH2NH) = O=C([C@H]1C[C@@H](CN[*:1])C1)[*:2]; Phe(4-guanidino) = N=C(N)Nc1ccc(C[C@H](N)C(=O)O)cc1; X60 = O=C([C@H](Cc1ccc(NC2=NCCN2)cc1)N[*:1])[*:2]; X49 = O=C(O)Cc1cccc(C[C@H](N[*:1])C(=O)[*:2])c1; X77 = O=C([C@H](Cc1cnn(C2CCOCC2)c1)N[*:1])[*:2]; Ala(pyrimidin-5-yl) = N[C@@H](Cc1cncnc1)C(=O)O; NMePhe(3-Me) = CN[C@@H](Cc1cccc(C)c1)C(=O)O; Phe(4-CH2NH2) = NCc1ccc(C[C@H](N)C(=O)O)cc1; Phe(4-NH2) = Nc1ccc(C[C@H](N)C(=O)O)cc1; X15 = O=C([C@H](Cc1cnccc1F)N[*:1])[*:2]; X46 = O=C([C@H](Cc1cccnc1F)N[*:1])[*:2]; Phe(3-F) = N[C@@H](Cc1cccc(F)c1)C(=O)O; Phe(4-F) = N[C@@H](Cc1ccc(F)cc1)C(=O)O; 1Nal = N[C@@H](Cc1cccc2ccccc12)C(=O)O; NHCH2CH2SCH2CO = O=C(CSCCN[*:1])[*:2]; X35 = CN([C@@H](CCCF)C(=O)[*:2])[*:1]; Phe(2-F) = N[C@@H](Cc1ccccc1F)C(=O)O; X31 = O=C([C@H](CCC1CC1)N[*:1])[*:2]; NMe3Pal = CN[C@@H](Cc1cccnc1)C(=O)O; X1 = O=C(C12CC(CN[*:1])(C1)C2)[*:2]; NMeR = CN[C@@H](CCCNC(=N)N)C(=O)O; Ala(cPr) = N[C@@H](CC1CC1)C(=O)O; NMeF = CN[C@@H](Cc1ccccc1)C(=O)O; PhLac = O=C(O)[C@@H](O)Cc1ccccc1; X4 = O=C([C@H](CCCF)N[*:1])[*:2]; 3Pal = N[C@@H](Cc1cccnc1)C(=O)O; 4Pal = N[C@@H](Cc1ccncc1)C(=O)O; d(αMeC) = C[C@@](N)(CS)C(=O)O; Ahp(2) = CCCCC[C@H](N)C(=O)O; Cba = N[C@@H](CC1CCC1)C(=O)O; hLeu = CC(C)CC[C@H](N)C(=O)O; hLys = NCCCCC[C@H](N)C(=O)O; αMeC = C[C@](N)(CS)C(=O)O; NMeA = CN[C@@H](C)C(=O)O; Nle = CCCC[C@H](N)C(=O)O; Nva = CCC[C@H](N)C(=O)O
# Molecular target: KRAS-G12D protein (Homo sapiens, UniProt P01116, G12D)
# Sequence (P01116 1-188 isoform P01116-2 G12D): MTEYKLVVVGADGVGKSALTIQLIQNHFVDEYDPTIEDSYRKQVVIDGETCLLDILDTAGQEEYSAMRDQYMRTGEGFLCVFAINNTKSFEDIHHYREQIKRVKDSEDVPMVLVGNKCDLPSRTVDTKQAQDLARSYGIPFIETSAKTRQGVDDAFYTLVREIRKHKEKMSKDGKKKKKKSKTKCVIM
# Experiment: SOS-mediated nucleotide exchange assay (BODIPY-GDP / Tb-streptavidin TR-FRET)
# Assay type: biochemical
row,SMILES,EC50 [nM]
1,"CCC[C@@H]1NC(=O)[C@H](Cc2ccc(O)cc2)NC(=O)[C@H](CC(C)C)NC(=O)[C@H](Cc2ccc(O)cc2)NC(=O)[C@H](CCCNC(=N)N)N(C)C(=O)[C@H](Cc2ccccc2)NC(=O)CSC[C@H](C(N)=O)NC(=O)[C@H](Cc2ccccc2)N(C)C1=O [compound 176, cyclo(F-NMeR-Y-L-Y-Nva-NMeF-dCl-ClAc)] ({CH2CO}-F[NMeR]YLY[Nva][NMeF][dC]-NH2; thioether N-8)",2420
2,"CC(C)CC[C@@H]1NC(=O)[C@H](Cc2cccc(F)c2)NC(=O)[C@H](CC2CCC2)NC(=O)[C@H](Cc2cncnc2)NC(=O)[C@H](C)N(C)C(=O)[C@H](Cc2ccccc2)OC(=O)C23CC(CNC(=O)[C@H](Cc4ccccc4)N(C)C1=O)(C2)C3 [compound 303, cyclo(FLac-NMeA-PyrimAla-cBuA-Phe3F-hL-NMeF-amBCP)] (cyclo([Cba][Phe(3-F)][hLeu][NMeF][X1][PhLac][NMeA][Ala(pyrimidin-5-yl)]))",60.9
3,"CCCC[C@@H]1NC(=O)[C@H](Cc2ccc(NC3=NCCN3)cc2)NC(=O)[C@H](CCCNC(=N)N)NC(=O)[C@H](Cc2ccccc2)NC(=O)[C@H]2C[C@@H](CNC(=O)[C@H](Cc3ccccc3)N(C)C(=O)[C@H](CCCC)NC(=O)[C@H](Cc3ccc(OC)cc3)NC1=O)C2 [compound 207, cyclo(F-R-Phe4Gnc2-Nle-TyrOMe-Nle-NMeF-c3amCblc)] (cyclo(FR[X60][Nle]Y(Me)[Nle][NMeF][cBu(1-CO,cis-3-CH2NH)]))",15.6
4,"CC(C)CC[C@@H]1NC(=O)[C@H](Cc2cccnc2F)NC(=O)[C@H](CC2CC2)NC(=O)[C@H](Cc2cncnc2)NC(=O)[C@H](C)N(C)C(=O)[C@H](Cc2ccccc2)OC(=O)C23CC(CNC(=O)[C@H](Cc4ccccc4)N(C)C1=O)(C2)C3 [compound 215, cyclo(FLac-NMeA-PyrimAla-cPrA-3Pal2F-hL-NMeF-amBCP)] (cyclo([Ala(cPr)][X46][hLeu][NMeF][X1][PhLac][NMeA][Ala(pyrimidin-5-yl)]))",31
5,"CCCC[C@@H]1NC(=O)[C@H](Cc2ccccc2F)NC(=O)[C@H](CC(C)C)NC(=O)[C@H](Cc2cncnc2)NC(=O)[C@H](C)N(C)C(=O)[C@H](Cc2ccccc2)OC(=O)C23CC(CNC(=O)[C@H](Cc4cccnc4)N(C)C1=O)(C2)C3 [compound 129, cyclo(FLac-NMeA-PyrimAla-L-Phe2F-Nle-NMe3Pal-amBCP)] (cyclo([PhLac][NMeA][Ala(pyrimidin-5-yl)]L[Phe(2-F)][Nle][NMe3Pal][X1]))",4.38
6,"CCCC[C@@H]1NC(=O)[C@H](Cc2cccnc2)NC(=O)[C@H](C)N(C)C(=O)[C@H](Cc2ccccc2)OC(=O)CSC[C@@](C)(C(N)=O)NC(=O)[C@H](Cc2cccnc2)N(C)C(=O)[C@H](CCCC)NC(=O)[C@H](Cc2ccccc2F)NC1=O [compound 398, cyclo(FLac-NMeA-3Pal-Nlc-Phe2F-Nle-NMe3Pal-aMeCl-ClAc)] ({CH2CO}-[PhLac][NMeA][3Pal][Nle][Phe(2-F)][Nle][NMe3Pal][αMeC]-NH2; thioether N-8)",3.81
7,"C[C@H]1C(=O)N[C@@H](Cc2cncnc2)C(=O)N[C@@H](CC2CCC2)C(=O)N[C@@H](Cc2ccccc2F)C(=O)N[C@@H](CCC2CC2)C(=O)N(C)[C@@H](Cc2ccccc2)C(=O)NCC23CC(C2)(C3)C(=O)O[C@@H](Cc2ccccc2)C(=O)N1C [compound 115, cyclo(FLac-NMeA-PyrimAla-cBuA-Phe2F-hcPrA-NMeF-amBCP)] (cyclo([Cba][Phe(2-F)][X31][NMeF][X1][PhLac][NMeA][Ala(pyrimidin-5-yl)]))",4
8,"CCCC[C@@H]1NC(=O)[C@H](Cc2cnn(C3CCOCC3)c2)NC(=O)[C@H](C)N(C)C(=O)[C@H](Cc2ccccc2)OC(=O)C23CC(CNC(=O)[C@H](Cc4ccccc4)N(C)C(=O)[C@H](CCCC)NC(=O)[C@H](Cc4ccccc4F)NC1=O)(C2)C3 [compound 308, cyclo(FLac-NMeA-AlaPyzlTHP4-Nle-Phe2F-Nle-NMeF-amBCP)] (cyclo([NMeA][X77][Nle][Phe(2-F)][Nle][NMeF][X1][PhLac]))",6.86
9,"CCCC[C@@H]1NC(=O)[C@H](Cc2ccc(O)cc2)NC(=O)[C@H](CC(C)C)NC(=O)[C@H](Cc2ccc(N)cc2)NC(=O)[C@H](CCCNC(=N)N)NC(=O)[C@H](Cc2ccccc2)NC(=O)CSCCNC(=O)[C@H](Cc2ccccc2)N(C)C1=O [compound 79, cyclo(F-R~Phe4NH2-L-Y-Nle-NMeF-Cysteamine-ClAc)] (cyclo(FR[Phe(4-NH2)]LY[Nle][NMeF][NHCH2CH2SCH2CO]))",2360
10,"CCCC[C@@H]1NC(=O)[C@H](Cc2cccnc2)NC(=O)[C@H](CCCNC(=N)N)NC(=O)[C@H](Cc2ccccc2)NC(=O)CSC[C@@](C)(C(=O)N(C)C)NC(=O)[C@H](Cc2cccnc2)N(C)C(=O)[C@H](CCCC)NC(=O)[C@H](Cc2ccccc2F)NC1=O [compound 184, cyclo(F-R-3Pal-Nle-Phe2F-Nle-NMe3Pal-aMeC7-ClAc)] ({CH2CO}-FR[3Pal][Nle][Phe(2-F)][Nle][NMe3Pal][αMeC]-NMe2; thioether N-8)",728
11,"CC(C)CC[C@@H]1NC(=O)[C@H](Cc2ccccc2F)NC(=O)[C@H](CCCF)NC(=O)[C@H](Cc2cncnc2)NC(=O)[C@H](C)N(C)C(=O)[C@H](Cc2ccccc2)OC(=O)C23CC(CNC(=O)[C@H](Cc4ccccc4)N(C)C1=O)(C2)C3 [compound 133, cyclo(FLac-NMeA-PyrimAla-NvaF-Phe2F-hL-NMeF-amBCP)] (cyclo([NMeA][Ala(pyrimidin-5-yl)][X4][Phe(2-F)][hLeu][NMeF][X1][PhLac]))",7.79
12,"CCCC[C@@H]1NC(=O)[C@H](CCCCN)NC(=O)[C@H](CCCNC(=N)N)NC(=O)[C@H](Cc2cccc3ccccc23)NC(=O)CSCCNC(=O)[C@H](Cc2ccccc2)N(C)C(=O)[C@H](CCCC)NC(=O)[C@H](Cc2cccc(CC(=O)O)c2)NC1=O [compound 196, cyclo(INal-R-K-Nle-Phe3AcOH-Nle-NMeF-Cysteamine-ClAc)] (cyclo([1Nal]RK[Nle][X49][Nle][NMeF][NHCH2CH2SCH2CO]))",2650
13,"CCCC[C@@H]1NC(=O)[C@H](Cc2ccc(CNC(C)=O)cc2)NC(=O)[C@H](CCCNC(=N)N)NC(=O)[C@H](Cc2cccc3ccccc23)NC(=O)CSC[C@](C)(C(=O)O)NC(=O)[C@H](Cc2ccccc2)N(C)C(=O)[C@H](CCCC)NC(=O)[C@H](Cc2ccc(O)cc2)NC1=O [compound 145, cyclo(INal-R-Phe4CH2NHAc-Nle-Y-Nle-NMeF-daMeC-ClAc)] ({CH2CO}-[1Nal]R[Phe(4-CH2NH2)](Ac)[Nle]Y[Nle][NMeF][d(αMeC)]-OH; thioether N-8)",7030
14,"CCCC[C@@H]1NC(=O)[C@H](Cc2cccnc2)NC(=O)[C@H](CCCF)N(C)C(=O)[C@H](Cc2ccccc2)OC(=O)C23CC(CNC(=O)[C@H](Cc4cccnc4)N(C)C(=O)[C@H](CCCC)NC(=O)[C@H](Cc4ccccc4F)NC1=O)(C2)C3 [compound 239, cyclo(FLac-NMeNvaF-3Pal-Nle-Phe2F-Nle-NMe3Pal-amBCP)] (cyclo([3Pal][Nle][Phe(2-F)][Nle][NMe3Pal][X1][PhLac][X35]))",297
15,"CCC[C@@H]1NC(=O)[C@H](Cc2ccc(OC)cc2)NC(=O)[C@H](CC(C)C)NC(=O)[C@H](Cc2ccncc2)NC(=O)[C@H](CCCNC(=N)N)NC(=O)[C@H](Cc2ccc(F)cc2)NC(=O)CSC[C@H](C(=O)NCC(=O)NCC(=O)O)NC(=O)[C@H](Cc2ccccc2)N(C)C1=O [compound 66, cyclo(Phe4F-R-4Pal-L-TyrOMe-Nva-NMeF-dC6-ClAc)] ({CH2CO}-[Phe(4-F)]R[4Pal]LY(Me)[Nva][NMeF][dC]GG-OH; thioether N-8)",369
16,"CCCC[C@@H]1NC(=O)[C@H](COC)NC(=O)[C@H](CC2CCC2)NC(=O)[C@H](Cc2cccnc2)NC(=O)[C@H](CCCNC(=N)N)NC(=O)[C@H](Cc2ccccc2)NC(=O)CSC[C@@](C)(C(N)=O)NC(=O)[C@H](Cc2ccccc2)N(C)C1=O [compound 52, cyclo(F-R-3Pal-cBuA-SerOMe-Nle-NMeF-aMeCl-ClAc)] ({CH2CO}-FR[3Pal][Cba]S(Me)[Nle][NMeF][αMeC]-NH2; thioether N-8)",943
17,"CCCCC[C@@H]1NC(=O)[C@H](Cc2ccc(OC)cc2)NC(=O)[C@H](CCCC)NC(=O)[C@H](Cc2ccc(NC(=N)N)cc2)NC(=O)[C@H](CCCNC(=N)N)NC(=O)[C@H](Cc2ccccc2)NC(=O)CSC[C@H](C(N)=O)NC(=O)[C@H](Cc2ccccc2)N(C)C1=O [compound 350, cyclo(F-R-Phe4Gn-Nle-TyrOMe-Abp-NMeF-dCl-ClAc)] ({CH2CO}-FR[Phe(4-guanidino)][Nle]Y(Me)[Ahp(2)][NMeF][dC]-NH2; thioether N-8)",35.4
18,"CCCCC[C@@H]1NC(=O)[C@H](Cc2ccc(OC)cc2)NC(=O)[C@H](CC2CCC2)NC(=O)[C@H](Cc2cccnc2)NC(=O)[C@H](CCCNC(=N)N)NC(=O)[C@H](Cc2ccccc2)NC(=O)CSC[C@@](C)(C(N)=O)NC(=O)[C@H](Cc2ccccc2)N(C)C1=O [compound 347, cyclo(F-R~3Pal-cBuA-TyrOMe-Ahp-NMeF-aMeCl-ClAc)]",5.72
19,"Cc1cccc(C[C@H]2C(=O)NCC34CC(C3)(C4)C(=O)O[C@@H](Cc3ccccc3)C(=O)N(C)[C@@H](C)C(=O)N[C@@H](Cc3cncnc3)C(=O)N[C@@H](CC3CC3)C(=O)N[C@@H](Cc3cnccc3F)C(=O)N[C@@H](CCC(C)C)C(=O)N2C)c1 [compound 278, cyclo(FLac-NMeA-PyrimAla-cPrA-3Pal6F-hL-NMePhe3Me-amBCP)] (cyclo([Ala(cPr)][X15][hLeu][NMePhe(3-Me)][X1][PhLac][NMeA][Ala(pyrimidin-5-yl)]))",2
20,"CC(C)C[C@@H]1NC(=O)[C@H](Cc2ccc(O)cc2)NC(=O)[C@H](CCCNC(=N)N)NC(=O)[C@H](Cc2ccccc2)NC(=O)CSC[C@@H](C(N)=O)NC(=O)[C@H](Cc2ccccc2)N(C)C(=O)[C@H](CCCCCN)NC(=O)[C@H](Cc2ccc(O)cc2)NC1=O [compound 13, cyclo(F-R-Y-L-Y-hK-NMcF-Cl-ClAc)] ({CH2CO}-FRYLY[hLys][NMeF]C-NH2; thioether N-8)",5630
21,"CCCC[C@@H]1NC(=O)[C@H](Cc2cccnc2)NC(=O)[C@H](C)N(C)C(=O)[C@H](Cc2ccccc2)OC(=O)C23CC(CNC(=O)[C@H](Cc4cccnc4)N(C)C(=O)[C@H](CCCC)NC(=O)[C@H](Cc4ccccc4F)NC1=O)(C2)C3 [compound 244, cyclo(FLac-NMeA-3Pal-Nle-Phe2F-Nle-NMe3Pal-amBCP)] (cyclo([3Pal][Nle][Phe(2-F)][Nle][NMe3Pal][X1][PhLac][NMeA]))",36
